For data set [1] the following is noted: human.
Data set [2] in a line: Caco-2 Papp determination. Conditions: human, Caco-2, pH 7.4.
In data set [3] the test system is WNT-dependent signaling, 7dF3 cells (HEK293). The data set is described as follows: 7dF3 luciferase reporter assay. Format: cell-based, human.
Data set [4] is described as follows: Thermodynamic solubility determination. The class given is physicochemical. Conditions: for solubility at 24 h: phosphate buffer, pH 7.4, TFA salt, pH 7.4, 37 °C, read-out: Solubility Therm.
The next data set is described as follows: In vivo mouse PK. The conditions noted are these: female, NMRI, plasma; for Vd / clearance: iv, 0.2 mg/kg; for clearance: Cl, 0.2 mg/kg iv; for bioavailability: po, 0.5 mg/kg.
The nature of data set [5]: Mouse Clint determination. Format: in vitro ADME. As to the method: (§1) Mouse, Rat, and Human Clint Determination
(§2) Microsomes (final concentration 0.5 mg/mL), 50 mM phosphate buffer pH 7.4, and compound (final concentration 1 μM) were added to the assay plate and allowed to preincubate for 5 min at 37 °C. The reaction was initiated by the addition of NADPH (final concentration 1.5 mM), and the plate was shaken at 800 rpm at 37 °C. After 0, 5, 10, 20, and 30 min aliquots were taken and the reaction was stopped using cold acetonitrile. The samples were centrifuged at 4000 rpm for 30 min at 4 °C and analyzed by LC–MS/MS. Four test compounds were pooled for analysis. The in vitro intrinsic clearance was calculated from the rate of compound disappearance.

Another data set in a line: Rat Clint determination. The class given is in vitro ADME. Conditions: pH 7.4; rat microsomes.
Data set [6] can be described thus: Human Clint determination. Format: in vitro ADME. Conditions: pH 7.4; human microsomes. As to the method: as §1, §2
Data set [7] is described as follows: Kinetic solubility determination. The conditions noted are these: phosphate buffer, pH 7.4, Solubility Kinetic, free base.

Values after ≈ are worked out from the molar mass of the structure shown. Where two headings read alike, the source gives them in different places.

As to `Cn1cc(-c2ccc(-c3cncc(Cl)c3N3CCC4(CCNC4=O)CC3)cc2)cn1` [Compound 6], the clearance (commonly the rate of elimination divided by the concentration) in [1] is 14.7 mL/min/kg. For the setting “human”, the “clearance prediction, iviv from hepatocytes” value is 0.53 L/h/kg and the “clearance prediction, simple allometry” value is on record as 1.45 L/h/kg. Moreover, for the setting “human prediction”, the F result was “∼70%”; the Vd (as a rule, a proportionality between amount in the body and measured concentration, not a real space) was “∼0.85 L/kg”; the t1/2 result was “∼0.70 h”. The Cl result (human prediction, mean of all methods) was “∼0.88 L/h/kg”. Further, in data set [2], the Papp A→B (commonly how fast a substance crosses the layer from the apical side) at 2 h, 1 μM amounted to 23.7 ×10⁻⁶ cm/s.
Regarding `O=C1NCCC12CCN(c1c(Cl)cncc1-c1ccc3c(c1)CS(=O)(=O)N3)CC2` [Compound 22], in data set [3] (7dF3, compared to 6), the “drop in cell-based potency” value is recorded as 23 fold. In data set [4] (compared to 6), the “improvement of thermodynamic aqueous solubility” value is 120 fold. For the same compound, the solubility (usually the concentration that dissolves in the medium under given conditions) at 24 h in data set [4] came out at 759 µg/mL. Moreover, in “In vivo mouse PK”, the Vd came to 1.19 L/kg; the clearance is 84 mL/min/kg; the bioavailability – broadly, dose-corrected exposure relative to a reference, in per cent – was 11%. In addition, the Papp A→B at 2 h, 1 μM in data set [2] is 4.9 ×10⁻⁶ cm/s.
Regarding `CC1=NNC(=O)C12CCN(c1c(Cl)cncc1-c1ccc3c(c1)CS(=O)(=O)N3C)CC2` [Compound 49], the “improvement in potency in the 7dF3 assay” value in data set [3] (compared to 23) is 13 fold. For the same compound, in data set [2], the Papp A→B at 2 h, 1 μM stood at 40 ×10⁻⁶ cm/s and the efflux ratio (in general, the permeability from basolateral to apical divided by that in the opposite direction, in the common usage) at 2 h, 1 μM was 4.9.
Regarding `Cn1cc(-c2ccc(-c3cncc(C(F)(F)F)c3N3CCC4(CC3)CNC(=O)O4)cc2)cn1` [Compound 72, 8-(3-(4-(1-Methyl-1H-pyrazol-4-yl)phenyl)-5-(trifluoromethyl)pyridin-4-yl)-1-oxa-3,8-diazaspiro[4.5]decan-2-one 2,2,2-Trifluoroacetate], the solubility at 24 h in data set [4] is 35 µg/mL. Further, in “In vivo mouse PK”, the Vd is 2.3 L/kg, the clearance was 30.3 mL/min/kg and the bioavailability was determined as 48%. Besides, the Papp A→B at 2 h, 1 μM in [2] was determined as 47.4 ×10⁻⁶ cm/s.
Consider `Nc1ncc(-c2ccc3c(N)n[nH]c3c2)c(N2CCC3(CCNC3=O)CC2)c1Cl` [Compound 87], for which the “more stable in mouse Clint experiments” value in data set [5] (compared to 25) was “at least 5 fold”. In addition, the Papp A→B at 2 h, 1 μM in [2] amounted to 1.3 ×10⁻⁶ cm/s.
For the compound `Cn1cc(-c2ccc(-c3cnc(N)c(Cl)c3N3CCC4(CC3)CNC(=O)O4)cc2)cn1` [Compound 89], in data set [4], the solubility at 24 h was 5 µg/mL. Further, in the data set “In vivo mouse PK”, the Vd stood at 1.4 L/kg, the clearance was 22.5 mL/min/kg and the bioavailability amounted to 35%. Further, in [2], the Papp A→B at 2 h, 1 μM was found to be 48.3 ×10⁻⁶ cm/s.
The matching figures for `CN1c2ccc(-c3cnc(N)c(Cl)c3N3CCC4(CC3)CNC(=O)O4)cc2CS1(=O)=O` [Compound 90]: 2 µg/mL, 1.81 L/kg, 36 mL/min/kg, 9% and 10.3 ×10⁻⁶ cm/s.
For `Cn1cc(-c2ccc(-c3cnc(N)c(C(F)(F)F)c3N3CCC4(CC3)CNC(=O)O4)cc2)cn1` [Compound 95, 8-(2-Amino-5-(4-(1-methyl-1H-pyrazol-4-yl)phenyl)-3-(trifluoromethyl)pyridin-4-yl)-1-oxa-3,8-diazaspiro[4.5]decan-2-one 2,2,2-Trifluoroacetate] the same measures were 8 µg/mL, 1.93 L/kg, 25 mL/min/kg, 42% and 29.1 ×10⁻⁶ cm/s.
For `CC(C)n1ncc2ccc(-c3cnc(N)c(Cl)c3N3CCC4(CCNC4=O)CC3)cc21` [Compound 111], the microsomal CLint (usually the rate of metabolic loss divided by the concentration) at 1 μM in [5] (pH 7.4, mouse microsomes) came out at 202 µL/min/mg; in the data set “Rat Clint determination”, 139 µL/min/mg; in [6], 202 µL/min/mg. Besides, in data set [7], the kinetic solubility (usually solubility judged after dilution from a stock solution rather than from solid) at 120 min is 126 µM (≈ 55.3 µg/mL).

These data come from PMC5362750, “Discovery of Potent, Selective, and Orally Bioavailable Small-Molecule Modulators of the Mediator Complex-Associated Kinases CDK8 and CDK19” (Journal of Medicinal Chemistry, 2016).
